# Like-named read-outs stand apart in the source and are kept apart here. Residues, ends and D or L forms follow the SMILES beside them.
# Legend:
# [1] = biological target: T1, integrin α6β4 (Homo sapiens, UniProt P16144+P23229); test: Microscale thermophoresis (MST) affinity to integrin α6β4; type: binding; settings: MST
# T1 sequence (P23229 24-1050 limits assumed): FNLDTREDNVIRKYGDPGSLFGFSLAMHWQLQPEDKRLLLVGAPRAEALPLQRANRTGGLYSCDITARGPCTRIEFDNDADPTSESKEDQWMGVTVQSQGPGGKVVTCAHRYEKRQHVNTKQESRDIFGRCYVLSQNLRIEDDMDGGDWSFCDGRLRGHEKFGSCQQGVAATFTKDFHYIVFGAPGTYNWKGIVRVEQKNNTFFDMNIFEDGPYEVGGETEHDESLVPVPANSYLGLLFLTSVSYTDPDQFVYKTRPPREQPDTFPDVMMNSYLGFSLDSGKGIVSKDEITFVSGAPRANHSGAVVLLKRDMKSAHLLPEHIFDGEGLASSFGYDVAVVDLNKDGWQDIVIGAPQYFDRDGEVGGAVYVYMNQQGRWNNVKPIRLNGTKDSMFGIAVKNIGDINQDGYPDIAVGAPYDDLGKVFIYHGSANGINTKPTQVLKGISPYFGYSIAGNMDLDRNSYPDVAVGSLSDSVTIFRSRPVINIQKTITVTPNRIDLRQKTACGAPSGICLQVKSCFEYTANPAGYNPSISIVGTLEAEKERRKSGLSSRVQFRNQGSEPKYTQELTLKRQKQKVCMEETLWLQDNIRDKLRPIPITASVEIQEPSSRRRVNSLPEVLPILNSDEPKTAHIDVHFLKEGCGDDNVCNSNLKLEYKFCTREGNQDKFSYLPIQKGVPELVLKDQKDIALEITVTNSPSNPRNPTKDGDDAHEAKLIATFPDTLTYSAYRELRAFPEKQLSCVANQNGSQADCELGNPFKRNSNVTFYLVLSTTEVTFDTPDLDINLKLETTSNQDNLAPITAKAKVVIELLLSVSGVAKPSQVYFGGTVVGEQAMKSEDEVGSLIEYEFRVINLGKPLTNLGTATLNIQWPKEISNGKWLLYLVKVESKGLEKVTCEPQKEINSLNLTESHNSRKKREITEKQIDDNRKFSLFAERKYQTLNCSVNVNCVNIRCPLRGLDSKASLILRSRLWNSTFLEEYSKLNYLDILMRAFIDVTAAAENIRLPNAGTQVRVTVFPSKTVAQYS
# T1 sequence (P16144 28-710 partner limits assumed): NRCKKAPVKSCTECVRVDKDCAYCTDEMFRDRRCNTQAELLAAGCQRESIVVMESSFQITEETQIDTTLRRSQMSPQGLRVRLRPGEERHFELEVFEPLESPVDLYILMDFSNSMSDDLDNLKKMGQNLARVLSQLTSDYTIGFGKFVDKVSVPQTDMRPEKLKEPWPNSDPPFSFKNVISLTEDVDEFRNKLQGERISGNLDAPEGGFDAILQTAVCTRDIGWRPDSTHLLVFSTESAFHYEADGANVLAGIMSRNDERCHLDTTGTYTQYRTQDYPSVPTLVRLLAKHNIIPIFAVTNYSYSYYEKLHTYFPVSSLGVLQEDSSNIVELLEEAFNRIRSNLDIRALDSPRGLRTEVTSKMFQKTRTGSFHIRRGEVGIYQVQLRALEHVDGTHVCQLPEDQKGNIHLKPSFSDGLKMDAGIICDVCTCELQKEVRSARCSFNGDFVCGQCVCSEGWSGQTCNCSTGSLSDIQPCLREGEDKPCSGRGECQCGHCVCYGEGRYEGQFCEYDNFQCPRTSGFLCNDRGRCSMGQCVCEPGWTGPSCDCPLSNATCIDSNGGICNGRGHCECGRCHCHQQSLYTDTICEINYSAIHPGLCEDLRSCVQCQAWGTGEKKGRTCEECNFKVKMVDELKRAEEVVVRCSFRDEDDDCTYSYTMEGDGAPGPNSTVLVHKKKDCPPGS
# Method: (§1) The affinity between these 18 polypeptides and integrin α6β4 was detected by microscale thermophoresis (MST) method as follows: • 1) Integrin α6β4 protein was dissolved to 800 nM, and polypeptide was dissolved to 100 μM. • 2) A RED-tris-NTA second-generation dye was diluted to 100 nM by using the MO series RED-tris-NTA protein labeling kit. • 3) 100 μl α6β4 protein was mixed with 50 μl dye and incubated at room temperature for 30 min, so that the α6β4 protein binds to the dye. • 4) 10 μl polypeptide was transferred into a PCR tube, and was diluted with PBST (containing 0.05% Tween 20) at a ratio of 1:1 to 16 gradients of concentrations. • 5) 3 μl protein/dye mixture was transferred into a PCR tube, 3 μl of 16 different concentrations of polypeptides was respectively added and mixed well. • 6) The mixture was absorbed by capillary and loaded on machine (instrument model Monolith NT.115) to assay, parameters were set as 80% LED/excitation power and medium MST power. • 7) MO. Affinity Analysis software was used to calculate the equilibrium dissociation constant KD between α6β4 protein and polypeptide by KD fitting mode.
# [2] = biological target: T2, integrin α6β4 (Homo sapiens, UniProt P23229); test: as above; type: binding
# T2 sequence (P23229 24-1050 limits assumed): T1 sequence (P23229 24-1050 limits assumed)
# T2 sequence (P16144 28-710 partner limits assumed): T1 sequence (P16144 28-710 partner limits assumed)
# Method: as §1
# [3] = biological target: integrin α6β1 (Homo sapiens, UniProt P05556+P23229); test: MST affinity to integrin α6β1; type: binding
# integrin α6β1, sequence (P05556 21-728 partner limits assumed, one chain of several): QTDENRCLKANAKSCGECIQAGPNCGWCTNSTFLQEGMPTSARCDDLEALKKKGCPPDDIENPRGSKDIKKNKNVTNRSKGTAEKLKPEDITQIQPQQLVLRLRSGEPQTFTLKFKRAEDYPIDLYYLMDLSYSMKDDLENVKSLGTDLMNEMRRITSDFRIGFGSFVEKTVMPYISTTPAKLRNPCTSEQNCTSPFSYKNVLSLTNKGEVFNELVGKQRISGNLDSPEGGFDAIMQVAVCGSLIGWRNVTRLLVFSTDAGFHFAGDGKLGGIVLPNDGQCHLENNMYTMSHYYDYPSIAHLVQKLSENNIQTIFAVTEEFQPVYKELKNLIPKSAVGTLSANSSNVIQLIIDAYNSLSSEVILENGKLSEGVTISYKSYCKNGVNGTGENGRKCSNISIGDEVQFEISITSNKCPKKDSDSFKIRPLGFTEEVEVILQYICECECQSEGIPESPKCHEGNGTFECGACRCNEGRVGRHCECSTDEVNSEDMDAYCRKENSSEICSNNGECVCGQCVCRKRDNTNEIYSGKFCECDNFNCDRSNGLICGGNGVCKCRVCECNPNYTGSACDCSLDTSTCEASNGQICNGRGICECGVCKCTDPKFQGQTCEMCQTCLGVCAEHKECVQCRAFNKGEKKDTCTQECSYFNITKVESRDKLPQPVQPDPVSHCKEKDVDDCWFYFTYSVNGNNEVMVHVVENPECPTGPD
# [4] = biological target: T3, integrin α6β4 (Homo sapiens, UniProt P23229); test: Affinity between polypeptide mutants and integrin α6β4 by microscale thermophoresis (MST); type: binding
# T3 sequence (P23229 24-938 limits assumed): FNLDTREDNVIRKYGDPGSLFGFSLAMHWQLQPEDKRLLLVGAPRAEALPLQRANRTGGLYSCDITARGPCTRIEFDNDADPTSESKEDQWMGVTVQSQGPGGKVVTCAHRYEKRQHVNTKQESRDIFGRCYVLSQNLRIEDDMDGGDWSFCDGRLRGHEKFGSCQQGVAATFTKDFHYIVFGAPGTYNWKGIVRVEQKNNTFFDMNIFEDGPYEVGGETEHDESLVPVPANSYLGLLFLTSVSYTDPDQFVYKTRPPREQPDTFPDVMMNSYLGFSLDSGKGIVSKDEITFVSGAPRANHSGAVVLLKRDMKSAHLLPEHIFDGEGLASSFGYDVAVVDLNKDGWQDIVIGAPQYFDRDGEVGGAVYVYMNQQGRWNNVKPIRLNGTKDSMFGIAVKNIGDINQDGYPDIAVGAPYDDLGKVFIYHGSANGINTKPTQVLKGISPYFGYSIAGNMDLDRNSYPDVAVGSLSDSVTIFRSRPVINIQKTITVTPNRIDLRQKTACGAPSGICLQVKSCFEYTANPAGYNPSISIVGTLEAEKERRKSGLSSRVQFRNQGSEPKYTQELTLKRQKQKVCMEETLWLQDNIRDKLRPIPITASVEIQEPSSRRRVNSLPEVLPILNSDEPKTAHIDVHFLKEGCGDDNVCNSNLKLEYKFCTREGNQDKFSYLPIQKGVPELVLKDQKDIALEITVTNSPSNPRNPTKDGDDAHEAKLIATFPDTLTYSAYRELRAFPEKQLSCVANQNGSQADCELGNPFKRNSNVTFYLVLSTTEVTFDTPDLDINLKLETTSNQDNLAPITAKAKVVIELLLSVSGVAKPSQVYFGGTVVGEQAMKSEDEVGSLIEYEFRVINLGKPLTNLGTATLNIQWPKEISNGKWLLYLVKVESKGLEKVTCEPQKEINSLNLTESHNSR
# T3 sequence (P23229 942-1050 limits assumed): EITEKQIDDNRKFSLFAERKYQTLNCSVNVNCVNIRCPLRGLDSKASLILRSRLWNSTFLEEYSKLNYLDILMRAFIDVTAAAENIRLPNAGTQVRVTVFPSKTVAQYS
# T3 sequence (P16144 28-710 partner limits assumed): T1 sequence (P16144 28-710 partner limits assumed)
# Method: as §1
# [5] = system: HCCLM3 subcutaneous tumors with high integrin α6 expression; test: Near infrared imaging of HCCLM3 subcutaneous tumor bearing mice; type: in vivo; settings: tail vein, 24 hours
# Method: (§2) In the near infrared imaging of small animals, a 2 μl of 1 mM fluorescent probe RWYD-PEG4-K(ICG)-K(NOTA) (structural formula shown in FIG. 1C) was injected into the tail vein of HCCLM3 subcutaneous tumor bearing mice. After 24 hours of internal circulation, the distribution in the subcutaneous tumor bearing mice was observed.
# [6] = system: Hep3B subcutaneous tumors without expression of integrin α6; test: Near infrared imaging of Hep3B subcutaneous tumors; type: in vivo, mice
# [7] = system: HCCLM3 subcutaneous tumors with high integrin α6 expression; test: Near infrared imaging in HCCLM3 subcutaneous tumor bearing mice; type: in vivo; settings: 2 μl of 1 mM, tail vein, 24 hours
# Method: as §2
# [8] = system: Hep3B subcutaneous tumors without expression of integrin α6; test: Near infrared imaging, Hep3B subcutaneous tumors; type: in vivo, mice
compound,measurement,setting,value
"N=C(N)NCCC[C@H](N)C(=O)N[C@@H](Cc1c[nH]c2ccccc12)C(=O)N[C@@H](Cc1ccc(O)cc1)C(=O)N[C@@H](CC(=O)O)C(=O)O [P15, RWYD] (H-RWYD-OH; N-terminus and C-terminus assumed)",Kd,"[1]; integrin α6β4, determination 1, read-out: KD (um) 1",20 nM
same,Kd,"[1]; integrin α6β4, determination 3, read-out: KD (um) 3",26 nM
same,Kd,"[1]; integrin α6β4, mean of 3, read-out: KD Mean value (μm)",20 nM
same,Kd,"[1]; integrin α6β4, read-out: KD",21.8 ± 3.86 nM
same,Affinity increase relative to CRWYDENAC,[2]; integrin α6β4,327 times
same,Affinity relative to RWY,[2]; relative to CRWYDENAC (RWY) = 1.00,326.875
same,Kd,[3],53.1 ± 28.7 nM
(RWYD-PEG4)2-K-K-NOTA (not fully specified),Kd,[4],64.8 ± 28.2 nM
same,affinity increase of RWYD-PEG4 dimer over RWYD-PEG4-K-NOTA,[4]; NOTA conjugates,about 10 times
RWYD-PEG4-K(ICG)-K(NOTA) [listing 1 of 2 here],"tumor uptake, near infrared imaging",[5],high taken up
same,"tumor uptake, near infrared imaging",[6],not high taken up
RWYD-PEG4-K(ICG)-K(NOTA) [listing 2 of 2 here],"tumor uptake, near infrared imaging",[7],high taken up by HCCLM3 subcutaneous tumors
same,"tumor uptake, near infrared imaging",[8],not high taken up by Hep3B subcutaneous tumors

# Source: patent US20240342320A1, “POLYPEPTIDE TARGETING INTEGRIN ALPHA 6 AND USE THEREOF” (GUANGZHOU GENBIONOVA MEDICAL TECHNOLOGY CO., LTD., priority 2021, published 2024)
